# Reference: US20110027341A1, “DEVICE FOR IN SITU PRODUCTION AND TOPICAL ADMINISTRATION OF ALLICIN” (YEDA RESEARCH AND DEVELOPMENT CO., LTD. at the Weizmann …, priority 2008, published 2011)
# Experiments:
# [1] = system: Trichoderma hyphae; assay: Antifungal activity of the two-filter delivery system on agar plates (halo of inhibition); type: cell-based; settings: for inhibition of fungal growth (halo around filter): filters placed 6 h after seeding 5×10^6 spores, 28° C., overnight incubation, FIG. 3A; for inhibition of fungal growth (halo around filter), mature growth: filters placed after 24 hours incubation, further 16 h, FIG. 3B
# Procedure: In this experiment, the effect of allicin released upon wetting of the two-filter delivery system on spores of Trichoderma hyphae was tested. In particular, four Petri dish plates containing nutrient agar for fungal growth were seeded with 5×10^6 spores of a test soil fungi (Trichoderma hyphae) and incubated at 28° C. […] Additional two plates in each of which a single glass fiber filter containing either the substrate or the enzyme were placed were used as controls and treated the same way. A fourth plate containing only the fungus served as the positive control, and a fifth plate without any fungus was used as the negative control.
# A similar experiment was carried out with identical filters on Petri dish plates that contained a more mature Trichoderma hyphae growth (after 24 hours incubation from seeding of the same number of spores). The filters were placed as described above and the plates were incubated for another 16 h.
# [2] = kept at cold temperatures, pH around 6; cited from earlier work
# [3] = system: nail fungus (onychomycosis); assay: Repeated topical application of pure allicin on infected toenails of volunteers; type: in vivo
# Procedure: In this preliminary study, the effect of repeated topical application of pure allicin on an infected nail was examined. The study was performed on a group of 10 volunteers infected with nail fungus (onychomycosis), wherein only toenails showing visible signs of being infected with a nail fungus were chosen for the topical treatment. […] The allicin solution was kept at 4° C. in citrate buffer pH 6.0 containing 1 M urea in a dark flask. A round cotton pad was cut in the approximate dimensions and size of the infected toenail (1.3 cm diameter×0.3 cm thick). 0.5 ml of the allicin solution was slowly delivered with a pipette to the surface of the cotton pad and the wet cotton pad was placed on the nail, taking precaution so as not to touch the skin surrounding the nail. The toe with the cotton pad was then covered overnight with a strip made of nylon to secure the pad on the nail and to prevent the spread of the volatile smelly odor of allicin. This treatment was repeated every night for 14 days. […] The treatment was then repeated once a week until all the infected regions of the old nail were cut off.
# [4] = target: various microorganisms; assay: Sensitivity tests of microorganisms to pure allicin and to allicin from dry alliin/alliinase mixtures (liquid culture, disk filters on agar, tampons); type: cell-based; settings: for LD50: range over the various microorganisms tested
# Procedure: In this experiment, the effect of allicin released upon wetting of the medicated tampons on various microorganisms, kindly provided by Dr. N. Keller from the clinical microbiology laboratory of the Sheba Medical Center (Tel HaShomer, Israel), was tested. The list of microorganisms included various types of yeasts, in particular, Saccharomyces cerevisiae, Candida albicans and Candida Glabrata; and several types of bacteria, in particular, group B Streptococci, methicillin-resistant Staphylococcus aureus (MRSA) and vancomycin-intermediate Staphylococcus aureus (VISA). In addition, two strains of Trichomonas vaginalis, one adherent to the plastic of the tube and the other non-adherent, were tested.
# In addition, various mixtures of dry alliin and dry alliinase were placed inside the cleft of vaginal tampons to yield different amounts of allicin in tubes containing liquid medium with bacteria or yeasts, wherein following overnight incubation, aliquots were taken from the tubes and plated on nutrient agar plates, and the number of colonies developed was determined in comparison to untreated controls. The effects of allicin on Trichomonas vaginalis was tested in liquid cultures, and the viability of the trophozoites after exposure to different concentrations of allicin was determined by the methylene blue vital dye exclusion as previously described (Kiernan, 1974).
# Dry glass fiber filters on which a solution containing 5, 20 or 30 μg of pure allicin was dripped just before placing on the seeded agar served as standards, and dry glass fiber filters that were placed on the seeded agar were used as controls.
# [5] = system: Trichomonas vaginalis; assay: In vitro growth of Trichomonas vaginalis trophozoites with pure allicin (hemacytometer count); type: cell-based; settings: 24 hours, 37° C.
# Procedure: The effect of allicin on the different microorganisms was tested in (i) sensitivity tests to different concentrations of pure allicin in liquid culture tubes containing full nutrient medium; […] The effects of allicin on Trichomonas vaginalis was tested in liquid cultures, and the viability of the trophozoites after exposure to different concentrations of allicin was determined by the methylene blue vital dye exclusion as previously described (Kiernan, 1974). […] Aliquotes were taken following incubation of 24 hours and the number of trophozoites was counted using a hemacytometer.
# [6] = Storage stability of dry alliin/alliinase components and filters (potential to produce allicin); type: physicochemical; settings: dry form at room temperature
Compound,inhibition of fungal growth (halo around filter) [1],"inhibition of fungal growth (halo around filter), mature growth [1]",degradation rate [2],"outcome of infected toenails after treatment ([3]; 0.5 ml of 0.5 mg/ml allicin solution (citrate buffer pH 6.0, 1 M urea) on cotton pad overnight, every night 14 days, then once a week, 10 volunteers)",tolerability: treatment not completed because of garlic smell ([3]; 10 volunteers),color of the fungus in the nail ([3]; by the third day of the treatment),time toenails remained fungus free ([3]; in some cases),color of the emerging new nail ([3]; within two weeks),"killing of microorganisms ([4]; all experiments, irrespective of type of microorganism, FIGS. 4-5 and Table 1)",LD50 [4],LD50 ([4]; as μM allicin),Trophozoites (×10^4) ([5]; allicin 5 μg/ml),Trophozoites (×10^4) ([5]; allicin 10 μg/ml),Trophozoites (×10^4) ([5]; allicin 15 μg/ml),Trophozoites (×10^4) ([5]; allicin 25 μg/ml),preservation of potential for producing allicin [6]
alliin,No such halos were seen,such halo is not visible,,,,,,,,,,,,,,
"C=CCS[S+]([O-])CC=C (stereo not drawn) [allicin, diallyl thiosulfinate]",,,8 %/month,eight individuals had a remarkably healthy regeneration of their toenails,Two individuals did not complete the treatment,turned from dark green to yellowish white,over 2 years,resumed its natural color,effective killing,8 to 15 µg/mL,20 to 50 µM,48 ×10^4,45 ×10^4,8 ×10^4,3 ×10^4,
alliinase,No such halos were seen,such halo is not visible,,,,,,,,,,,,,,preserved their potential for producing allicin for several months
